{"source": "patent US20090312396A1", "about": "“METHODS FOR CANCER TREATMENT USING TAK1 INHIBITORS” (AstraZeneca AB, priority 2006, published 2009)", "assay_in_all_cases": "AlamarBlue proliferation assay, GI50", "key": {"[1]": {"test_system": "ARH77", "type": "cell-based", "settings": "Homo sapiens, ARH-77, 72 hours", "protocol": "(§1) The TAK1 inhibitors are known in the art (see for example, WO 2003010158, WO 2003010163 and WO2004063186 the disclosures of which are incorporated by reference herein). All cell lines were plated at 10,000 cells/well in flat-bottomed 96 well plates and dosed with test compounds in triplicate over a 10 point dosing range from 0 to 30 μmolesL^−1. All cell lines were incubated with test compounds for a total of 72 hours. Background levels were determined for a control (undosed) plate within 2 hours of dosing test compounds. Following the dosing period, the extent of proliferation was measured by adding 1/10 (vol/vol) AlamarBlue reagent to every well and incubating the plates for a further 4 hours. The reaction was stopped by the addition of SDS to a final concentration of 0.1%. Fluorescence was measured at 545 nm (excitation) and 600 nm (emission). Growth inhibition 50 (GI50) values were determined for each test compound across the panel."}, "[2]": {"test_system": "DOHH2", "type": "cell-based", "settings": "Homo sapiens, DOHH-2, 72 hours, Table 4, read-out: GI50 DOHH2 FL", "protocol": "as §1"}, "[3]": {"test_system": "HEL92.1.7", "type": "cell-based", "settings": "Homo sapiens, HEL 92.1.7, 72 hours, Table 4, read-out: GI50 HEL92.1.7 Erythroleukemia", "protocol": "as §1"}, "[4]": {"test_system": "Jurkat", "type": "cell-based", "settings": "Homo sapiens, 72 hours, Table 4, read-out: GI50 Jurkat T-ALL", "protocol": "as §1"}, "[5]": {"test_system": "KG1a", "type": "cell-based", "settings": "Homo sapiens, KG-1a, 72 hours, Table 4, read-out: GI50 KG1a AML", "protocol": "as §1"}, "[6]": {"test_system": "Karpas231", "type": "cell-based", "settings": "Homo sapiens, 72 hours, Table 4, read-out: GI50 Karpas231 B-ALL", "protocol": "as §1"}, "[7]": {"test_system": "MEC1", "type": "cell-based", "settings": "Homo sapiens, 72 hours", "protocol": "as §1"}, "[8]": {"test_system": "OCI-LY19", "type": "cell-based", "settings": "Homo sapiens, 72 hours, Table 4, read-out: GI50 OCI-LY19 DLBCL", "protocol": "as §1"}, "[9]": {"test_system": "SUDHL4", "type": "cell-based", "settings": "Homo sapiens, SU-DHL-4, 72 hours, Table 4, read-out: GI50 SUDHL4 DLBCL", "protocol": "as §1"}, "[10]": {"test_system": "WSU-NHL", "type": "cell-based", "settings": "Homo sapiens, 72 hours, Table 4, read-out: GI50 WSU-NHL B-NHL", "protocol": "as §1"}, "[11]": {"test_system": "Raji", "type": "cell-based, human", "settings": "72 hours", "protocol": "as §1"}, "[12]": {"test_system": "AM0-1", "type": "cell-based", "settings": "Homo sapiens, 72 hours, Table 5, read-out: GI50 AM0-1 plasmacytoma", "protocol": "as §1\n(§2) The experiments to generate the results for both Tables 5 and 6 were performed as described above."}, "[13]": {"test_system": "DERL 2", "type": "cell-based", "settings": "Homo sapiens, T-cell, 72 hours, Table 6, read-out: GI50 DERL 2 T cell lymphoma", "protocol": "as §1, §2"}, "[14]": {"test_system": "IM-9", "type": "cell-based", "settings": "Homo sapiens, 72 hours, Table 5, read-out: GI50 IM-9 B lymph", "protocol": "as §1, §2"}, "[15]": {"test_system": "JEKO-1", "type": "cell-based", "settings": "Homo sapiens, 72 hours, Table 6, read-out: GI50 JEKO-1 MCL", "protocol": "as §1, §2"}, "[16]": {"test_system": "JJN-3", "type": "cell-based", "settings": "Homo sapiens, 72 hours, Table 5, read-out: GI50 JJN-3 plasma cell leukemia", "protocol": "as §1, §2"}, "[17]": {"test_system": "JVM-3", "type": "cell-based", "settings": "Homo sapiens, 72 hours, Table 6, read-out: GI50 JVM-3 B-PLL", "protocol": "as §1, §2"}, "[18]": {"test_system": "KARPAS-620", "type": "cell-based", "settings": "Homo sapiens, 72 hours, Table 5, read-out: GI50 KARPAS-620 plasma cell leukemia", "protocol": "as §1, §2"}, "[19]": {"test_system": "L-363", "type": "cell-based", "settings": "Homo sapiens, 72 hours, Table 5, read-out: GI50 L-363 plasma cell leukemia", "protocol": "as §1, §2"}, "[20]": {"test_system": "MOLP-8", "type": "cell-based", "settings": "Homo sapiens, 72 hours, Table 5, read-out: GI50 MOLP-8 Multiple myeloma", "protocol": "as §1, §2"}, "[21]": {"test_system": "NAMALWA", "type": "cell-based", "settings": "Homo sapiens, 72 hours, Table 6, read-out: GI50 NAMALWA Burkitts Lymphoma", "protocol": "as §1, §2"}, "[22]": {"test_system": "RPMI-8226", "type": "cell-based", "settings": "Homo sapiens, 72 hours, Table 5, read-out: GI50 RPMI-8226 Multiple myeloma", "protocol": "as §1, §2"}, "[23]": {"test_system": "Ramos", "type": "cell-based", "settings": "Homo sapiens, 72 hours, Table 6, read-out: GI50 Ramos Burkitts Lymphoma", "protocol": "as §1, §2"}, "[24]": {"test_system": "SC-1", "type": "cell-based", "settings": "Homo sapiens, 72 hours, Table 6, read-out: GI50 SC-1 FL", "protocol": "as §1, §2"}, "[25]": {"test_system": "U937", "type": "cell-based", "settings": "Homo sapiens, U-937, 72 hours, Table 6, read-out: GI50 U937 Histiocytic lymphoma", "protocol": "as §1, §2"}, "[26]": {"test_system": "WSU DLCL2", "type": "cell-based", "settings": "Homo sapiens, WSUDLCL2, 72 hours, Table 6, read-out: GI50 WSU DLCL2 B cell lymphoma", "protocol": "as §1, §2"}}, "note": "Where two headings read alike, the source gives them in different places."}
{"smiles": "COC(C)(C)CNCc1ccc(-c2cc(NC(N)=O)c(C(N)=O)s2)cc1", "note": "[Compound 4, 3-[(aminocarbonyl)amino]-5-(4-{[(2-methoxy-2-methylpropyl)amino]methyl}phenyl)thiophene-2-carboxamide]", "values": [{"measurement": "GI50", "setting": "[1]; Table 4, read-out: GI50 ARH77 Plasma cell leukemia", "value": 3720, "unit": "nM"}, {"measurement": "GI50", "setting": "[1]; Table 5, read-out: GI50 ARH-77 plasma cell leukemia", "value": 3720, "unit": "nM"}, {"measurement": "GI50", "setting": "[2]", "value": 101, "unit": "nM"}, {"measurement": "GI50", "setting": "[3]", "value": 1470, "unit": "nM"}, {"measurement": "GI50", "setting": "[4]", "value": 10100, "unit": "nM"}, {"measurement": "GI50", "setting": "[5]", "value": 1090, "unit": "nM"}, {"measurement": "GI50", "setting": "[6]", "value": 60, "unit": "nM"}, {"measurement": "GI50", "setting": "[7]; Table 4, read-out: GI50 MEC1 B-CLL", "value": 2990, "unit": "nM"}, {"measurement": "GI50", "setting": "[7]; Table 6, read-out: GI50 MEC-1 B-CLL", "value": 2990, "unit": "nM"}, {"measurement": "GI50", "setting": "[8]", "value": 54, "unit": "nM"}, {"measurement": "GI50", "setting": "[9]", "value": 3080, "unit": "nM"}, {"measurement": "GI50", "setting": "[10]", "value": 270, "unit": "nM"}, {"measurement": "GI50", "setting": "[11]; Table 6, read-out: GI50 Raji Burkitts Lymphoma", "value": "> 30000", "unit": "nM"}, {"measurement": "GI50", "setting": "[11]; Homo sapiens, Raji, Table 4, read-out: GI50 Raji Burkitts Lymphoma", "value": "> 30000", "unit": "nM"}, {"measurement": "GI50", "setting": "[12]", "value": 910, "unit": "nM"}, {"measurement": "GI50", "setting": "[13]", "value": 310, "unit": "nM"}, {"measurement": "GI50", "setting": "[14]", "value": 210, "unit": "nM"}, {"measurement": "GI50", "setting": "[15]", "value": 290, "unit": "nM"}, {"measurement": "GI50", "setting": "[16]", "value": 520, "unit": "nM"}, {"measurement": "GI50", "setting": "[17]", "value": 140, "unit": "nM"}, {"measurement": "GI50", "setting": "[18]", "value": 140, "unit": "nM"}, {"measurement": "GI50", "setting": "[19]", "value": 350, "unit": "nM"}, {"measurement": "GI50", "setting": "[20]", "value": 90, "unit": "nM"}, {"measurement": "GI50", "setting": "[21]", "value": 2960, "unit": "nM"}, {"measurement": "GI50", "setting": "[22]", "value": 1600, "unit": "nM"}, {"measurement": "GI50", "setting": "[23]", "value": 210, "unit": "nM"}, {"measurement": "GI50", "setting": "[24]", "value": 2880, "unit": "nM"}, {"measurement": "GI50", "setting": "[25]", "value": 120, "unit": "nM"}, {"measurement": "GI50", "setting": "[26]", "value": 1950, "unit": "nM"}]}
